Values of other authors in patent publication US20030060423A1, “Co-therapy for the treatment of dementia and associated behavioral manifestations comprising anticonvulsant derivatives and acetylcholinesterase inhibitors” (priority 2001, published 2003).

Legend:
[1] = test system: nicotinic receptors
[2] = test system: behavioral and psychiatric symptoms of AD; details: in vivo
[3] = test system: simple and complex partial seizures and secondarily generalized seizures; details: clinical trials, adjunctive therapy or monotherapy
[4] = test system: seizures; details: several rodent models of epilepsy
[5] = test system: kindled epilepsy; details: animal model of kindled epilepsy
[6] = test system: focal ischemia; details: used 2 hours after MCA embolization, rat
[7] = test system: neuronal damage following global ischemia; details: gerbils
[8] = test system: attention, cognition; details: some individuals

Compound: COc1ccc2c3c1O[C@H]1C[C@@H](O)C=C[C@@]31CCN(C)C2 [galantamine, (4aS,6R,8aS)-4a,5,9,10,11,12-hexahydro-3-methoxy-11-methyl-6H-benzofuro[3a,3,2-ef][2]benzazepin-6-ol]
- modulation of nicotinic receptors [1]: allosteric modulation of nicotinic receptors
- benefit on behavioral and psychiatric symptoms of AD [2]: benefits on the behavioral and psychiatric symptoms of AD

Compound: CC1(C)O[C@@H]2[C@@H](CO[C@@]3(COS(N)(=O)=O)OC(C)(C)O[C@@H]23)O1 [topiramate, 2,3:4,5-bis-O-(1-methylethylidene)-β-D-fructopyranose sulfamate]
- efficacy in treating simple and complex partial seizures and secondarily generalized seizures [3]: effective as adjunctive therapy or as monotherapy
- block of seizures [4]: effectively block seizures
- block of seizures [5]: effectively block seizures
- neuroprotective effect [6]: dose- and use-dependent neuroprotective effect
- neuroprotective effect against neuronal damage [7]: neuroprotective effect
- effect on attention [8]: may impair attention
